Assay results: patent publication US20230203025A1, “ENHANCERS OF PARTICULATE GUANYLYL CYCLASE RECEPTOR A” (Mayo Foundation for Medical Education and Research, priority 2020, published 2023)

Legend:
[1] = test system: primary human renal proximal tubular cells (HRPTCs); assay: cGMP generation in primary human renal proximal tubular cells; assay type: cell-based
Excerpt: HRPTCs represent an important human cell line as renal tubular injury and apoptosis leads to impaired renal function and structure.

[2] = hepatic microsomal stability, human; assay type: in vitro ADME
[3] = test system: primary human cardiomyocytes (HCMs); assay: inhibition of TGF-beta 1 induced human cardiomyocyte hypertrophy; assay type: cell-based; settings: TGF-β1 5 ng/mL
Method: Methods (Inhibition of Human Cardiac Hypertrophy In Vitro): primary human cardiomyocytes (HCMs) were grown in growth media to 50% confluence and then were subjected to serum starvation for 24 hrs. After that, 5 ng/mL of the cytokine TGFβ-1 (R&D Systems) was added to the media for 48 hrs to induce HCM hypertrophy. […] Normal cell buffer served as a vehicle only control, where TGFP-1 alone served as the positive control. Analysis for cell surface area (μm^2) was performed using the ImageJ software at the end of the study.
Results: to further support the cGMP generation in human primary cells leads to favorable biological GC-A mediated, the anti-hypertrophic effects were assessed of Compound 19 on live HCMs stressed with TGF-β1 (5 ng/mL), using a state-of-the-art live cell imaging platform (IncuCyte System).

human GC-A = molecular target: T1, human GC-A (Homo sapiens, UniProt P16066); assay: ex vivo cGMP generation in HEK293 GC-A cells incubated with human plasma; assay type: cell-based
T1 construct: expressed in transfected cells; host or cells: HEK293
T1 sequence (P16066 33-1061): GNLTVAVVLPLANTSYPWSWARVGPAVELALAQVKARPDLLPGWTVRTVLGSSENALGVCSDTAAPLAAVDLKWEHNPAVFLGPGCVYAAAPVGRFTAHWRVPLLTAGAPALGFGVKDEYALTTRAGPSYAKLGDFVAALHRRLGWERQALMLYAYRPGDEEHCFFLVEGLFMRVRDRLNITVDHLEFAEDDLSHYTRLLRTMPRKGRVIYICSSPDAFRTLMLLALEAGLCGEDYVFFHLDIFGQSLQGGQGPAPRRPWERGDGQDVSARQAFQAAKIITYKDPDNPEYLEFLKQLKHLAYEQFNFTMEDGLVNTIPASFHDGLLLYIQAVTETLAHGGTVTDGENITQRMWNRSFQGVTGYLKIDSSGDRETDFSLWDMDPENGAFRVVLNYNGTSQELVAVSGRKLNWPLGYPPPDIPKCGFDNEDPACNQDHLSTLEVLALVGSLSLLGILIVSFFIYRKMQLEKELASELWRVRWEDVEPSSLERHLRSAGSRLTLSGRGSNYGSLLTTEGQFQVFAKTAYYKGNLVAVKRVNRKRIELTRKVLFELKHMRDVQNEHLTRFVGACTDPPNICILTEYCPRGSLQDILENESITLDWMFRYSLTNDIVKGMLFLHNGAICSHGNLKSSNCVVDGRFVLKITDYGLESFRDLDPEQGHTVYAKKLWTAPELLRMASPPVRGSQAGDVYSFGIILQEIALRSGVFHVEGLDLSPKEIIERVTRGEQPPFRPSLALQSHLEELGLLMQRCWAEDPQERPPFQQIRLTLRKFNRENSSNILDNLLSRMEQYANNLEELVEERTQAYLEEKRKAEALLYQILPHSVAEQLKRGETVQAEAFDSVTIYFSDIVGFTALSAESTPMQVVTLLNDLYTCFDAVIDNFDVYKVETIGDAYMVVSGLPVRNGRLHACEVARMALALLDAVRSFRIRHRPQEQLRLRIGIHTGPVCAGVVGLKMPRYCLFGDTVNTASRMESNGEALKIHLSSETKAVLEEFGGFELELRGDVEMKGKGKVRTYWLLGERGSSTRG
T1 sequence (P01160 124-151 partner limits assumed): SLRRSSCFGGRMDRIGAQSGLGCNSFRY
Method: Methods: Stored human plasma samples from normal subjects and patients with hypertension and HF were utilized. The details of the recruitment of these participants are previously reported. All participants gave written informed consent and the Institutional Review Board (IRB) at Mayo Clinic approved this study. […] HEK293 overexpressing human GC-A were cultured and grown as described above. Cells were grown in 48-well plates to 80-90% confluence. On the day of the experiment, cells were pre-incubated with Compound 19 at doses of 1, 5 or 10 μM and without (Veh) in 250 μL treatment buffer for 5 min at 37° C. 25 μL of human plasma was then added and incubated for additional 10 min. After, cells were washed with PBS once, lysed with 0.1M HCl and intracellular cGMP levels were measured in the lysate using a commercial cGMP ELISA kit (Enzo Life Sciences, Farmingdale, N.Y.) as instructed by the manufacturer.

Hepatic Microsomal Stability (% remaining at 1 h) [2]: 98.2%
cGMP potency by plasma cohort (human GC-A; HF plasma, highest circulating ANP and BNP): greatest cGMP potency
SMILES: CN(C)CCN1CCCC(C(=O)Nc2nc3c(F)cc(F)cc3s2)C1 (stereo not shown) [Compound 19]
cGMP generation ([1]; HRPTCs, 1, 5 or 10 μM compound in the presence of ANP (10^−10 M)): clear increase in cGMP generation
cGMP generation ([1]; HRPTCs, compound alone at similar dose, no ANP): did not generate cGMP generation
inhibition of HCM hypertrophy ([3]; Compound 19 (1, 5, 10 μM) with ANP 10^−8 M): significant inhibition
inhibition of HCM hypertrophy ([3]; Compound 19 (1, 5, 10 μM) with ANP 10^−10 M): significant inhibition
generation of cGMP levels in HEK293 GC-A cells (human GC-A; 1, 5 or 10 μM with human plasma from normal, hypertension and HF cohorts): potentiated the generation of cGMP levels
